Data on ten compounds can be found in ChEMBL document CHEMBL1201862, “PubChem BioAssay data set” (2004).

What all share (test): inhibition of tumour cell growth, NCI panel, 48 h
Test [1] relates to A498.
Test [2] relates to ACHN.
For test [3], the system named is COLO 205.
In test [4] the test system is HCT-116.
For test [5], the system named is HCT-15.
Test [6] has as its system HL-60.
In test [7] the test system is HOP-92.
Test [8] concerns Hs-578T.
For test [9], the system named is IGROV-1.
For test [10], the system named is MCF7.
Test [11] concerns MDA-MB-435.
Test [12] has as its system MDA-N.
The test system of test [13] is MOLT-4.
The test system of test [14] is Malme-3M.
Test [15] relates to OVCAR-5.
For test [16], the system named is PC-3.
The test system of test [17] is SF-539.
The subject of test [18] is SK-MEL-28.
The test system of test [19] is TK-10.
The subject of test [20] is UO-31.

The structures appear in SMILES notation.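 Cultured in 96-well plates, cells were exposed to test compound for 48 hours across five concentrations. At the GI50, growth is halved.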 Calls of active or inactive are those of the source. Rule as the data show it: active = GI50 up to about 1.1 µM and inactive = higher.

Turning to `O=C(Nc1noc(-c2ccccc2)n1)c1ccccc1CNc1noc(-c2ccccc2)n1`, the GI50 in test [1] is > 100 µM (inactive); in [2], > 100 µM (inactive); in test [3], > 100 µM (inactive); in test [4], > 100 µM (inactive); in [5], above 100 µM; in test [6], > 100 µM (inactive). Besides, the GI50 is 62.8 µM (inactive) in test [7]; > 100 µM (inactive) in [8]; > 100 µM (inactive) in [9]; > 100 µM (inactive) in [10]; > 100 µM (inactive) in [11]; > 100 µM (inactive) in test [12]. The GI50 in test [13], in [14], in [15], in [16], in test [17] and in test [18] was > 100 µM (inactive) each time. Also, the GI50 in test [19] and in [20] was > 100 µM (inactive) in each case.

In the case of `O=C1c2ccccc2S(=O)(=O)c2cc(-c3nn[nH]n3)ccc21` [DOXANTRAZOLE], the GI50 in test [1] was > 100 µM (inactive); in [2], > 100 µM (inactive); in test [3], > 100 µM (inactive); in test [4], > 100 µM (inactive); in test [5] it was above 100 µM; in [6] it was > 100 µM (inactive). Moreover, the GI50 in test [7] was > 100 µM (inactive); in [8], > 100 µM (inactive); in [9], > 95.3 µM (inactive); in test [10], > 100 µM (inactive); in test [11] it was > 100 µM (inactive); in test [12], > 100 µM (inactive). The GI50 in test [13], in test [14], in test [15], in test [16], in test [17] and in test [18] was > 100 µM (inactive) in each case. For the same compound, the GI50 in test [19] and in [20] was > 100 µM (inactive) throughout.

Consider `CC(C)C(NC(=O)C(Cc1ccccc1)NC(=O)[C@H]1CCC[C@H]1NC(=O)C(Cc1ccc(OC(C)(C)C)cc1)NC(=O)OC(C)(C)C)C(N)=O` (stereo not given in full), for which the GI50 in test [1] was 10.7 µM (inactive); in [2] it was 45.7 µM (inactive); in test [3] it was 19.6 µM (inactive); in test [4], 17.3 µM (inactive); in test [5] it was 36.1 µM; in test [6] it was 34.8 µM (inactive). Also, the GI50 in test [7] was 21.8 µM (inactive); in test [8], > 10 µM (inactive); in [9], 31.3 µM (inactive); in test [10], 19.8 µM (inactive); in [11], 17 µM (inactive); in [12], 18.3 µM (inactive). Further, the GI50 in [13] was 17.4 µM (inactive); in test [14], > 10 µM (inactive); in test [15], 18.8 µM (inactive); in [16] it was 17.8 µM (inactive); in test [17] it was 16.5 µM (inactive); in test [18], 18.4 µM (inactive). The GI50 was 28.5 µM (inactive) in test [19] and 47.4 µM (inactive) in test [20].

Take `C/C(=N\NC(N)=O)C(CN(C)C)C(c1ccccc1)c1c(O)c2ccccc2oc1=O` (stereo not given): the GI50 in test [1] was > 100 µM (inactive); in test [2], > 100 µM (inactive); in test [3], 36.4 µM (inactive); in [4] it was > 100 µM (inactive); in test [5], above 100 µM; in [6], 38.4 µM (inactive). The GI50 was 0.296 µM (active) in test [7]; > 100 µM (inactive) in test [8]; > 100 µM (inactive) in test [9]; > 100 µM (inactive) in test [10]; > 100 µM (inactive) in test [11]; > 100 µM (inactive) in [12]. Moreover, the GI50 is 71.9 µM (inactive) in test [13]; 42.4 µM (inactive) in test [14]; > 100 µM (inactive) in [15]; > 100 µM (inactive) in test [16]; > 100 µM (inactive) in [17]; > 100 µM (inactive) in test [18]. The GI50 in [19] and in test [20] was > 100 µM (inactive) each time.

For `CN(C)CCNC(=O)c1cccc2nc3c(ccc4ccccc43)nc12`, the GI50 in test [1] is 2.95 µM (inactive); in test [2], 1.41 µM (inactive); in test [3], 1.6 µM (inactive); in [4] it was 1.75 µM (inactive); in [5] it was 1.61 µM; in test [6], 1.17 µM (inactive). Moreover, the GI50 was 3.61 µM (inactive) in [7]; 3.62 µM (inactive) in test [8]; 2.9 µM (inactive) in test [9]; 0.476 µM (active) in [10]; 3.33 µM (inactive) in [11]; 1.72 µM (inactive) in test [12]. Further, the GI50 in test [13] is 0.327 µM (active); in [14], 1.56 µM (inactive); in [15], 4.55 µM (inactive); in test [16], 2.79 µM (inactive); in test [17], 1.8 µM (inactive); in [18], 2.05 µM (inactive). In addition, the GI50 in test [19] was 7.93 µM (inactive); in [20] it was 3.38 µM (inactive).

On to `CSCCC(NC(=O)Cc1ccc(C(=O)c2ccccc2)cc1)C(=O)O` (stereo not given), for which the GI50 in test [1] is > 100 µM (inactive); in [2], > 100 µM (inactive); in [3] it was > 100 µM (inactive); in [4], > 100 µM (inactive); in test [5] it was above 100 µM; in test [6], > 100 µM (inactive). Moreover, the GI50 in test [7], in test [8], in test [9], in [10], in test [11] and in test [12] was > 100 µM (inactive) throughout. Besides, the GI50 in test [13], in test [14], in test [15], in [16], in test [17] and in test [18] was > 100 µM (inactive) each time. In addition, the GI50 in test [19] and in [20] was > 100 µM (inactive) in each case.

Regarding `c1c2c(cc3c1OCO3)-c1cc3ccc4c(c3c[n+]1CC2)OCO4` [COPTISINE CHLORIDE], the GI50 is 4.73 µM (inactive) in [1]; 2.5 µM (inactive) in test [2]; 3.56 µM (inactive) in test [3]; 0.447 µM (active) in [4]; 0.638 µM in test [5]; 0.406 µM (active) in [6]. Also, the GI50 in test [7] was 5.57 µM (inactive); in test [8] it was 1.38 µM (inactive); in [9], 2.04 µM (inactive); in test [10], 1.24 µM (inactive); in [11], 0.308 µM (active); in test [12] it was 0.299 µM (active). For the same compound, the GI50 is 1.29 µM (inactive) in [13]; 0.259 µM (active) in test [14]; > 12.5 µM (inactive) in test [15]; 0.944 µM (active) in test [16]; 0.887 µM (active) in test [17]; 1.2 µM (inactive) in [18]. Further, the GI50 in test [19] was > 12.5 µM (inactive); in test [20], 0.857 µM (active).

Take `O=C(O)COc1cc(-c2ccccc2)nc2cc(F)ccc12`: the GI50 was > 100 µM (inactive) in test [1]; > 100 µM (inactive) in test [2]; > 100 µM (inactive) in test [3]; > 100 µM (inactive) in [4]; above 100 µM in test [5]; > 100 µM (inactive) in test [6]. In addition, the GI50 in test [7], in [8], in [9], in test [10], in test [11] and in [12] was > 100 µM (inactive) in each case. In addition, the GI50 in [13], in test [14], in test [15], in test [16], in [17] and in [18] was > 100 µM (inactive) throughout. The GI50 in [19] is 0.375 µM (active); in [20], 64.7 µM (inactive).

Take `COc1c2c(cc3oc(C)cc(=O)c13)OC(=N)C(C(N)=O)C2CC(=O)c1ccc(N)cc1` (stereo not given): the GI50 in test [1] was > 100 µM (inactive); in test [2], > 100 µM (inactive); in [3] it was > 100 µM (inactive); in test [4] it was > 100 µM (inactive); in test [5] it was above 100 µM; in test [6], > 100 µM (inactive). For the same compound, the GI50 in test [7], in [8], in test [9], in test [10], in [11] and in test [12] was > 100 µM (inactive) throughout. In addition, the GI50 in test [13], in test [14], in test [15], in [16], in [17] and in test [18] was > 100 µM (inactive) throughout. In addition, the GI50 in [19] and in [20] was > 100 µM (inactive) throughout.

`C[Si](C)(c1ccccc1)[C@H]1CCCC=C1CCNC1c2ccccc2CCc2ccccc21`: the GI50 in [1] is 69.2 µM (inactive); in [2], 67.5 µM (inactive); in test [3] it was 38.9 µM (inactive); in [4], 48.3 µM (inactive); in test [5], 51.2 µM; in test [6] it was 1.79 µM (inactive). Further, the GI50 in test [7] is 23.7 µM (inactive); in [8], > 100 µM (inactive); in [9], 49.7 µM (inactive); in test [10], 53 µM (inactive); in test [11], 76.2 µM (inactive); in [12], 70.5 µM (inactive). Moreover, the GI50 is 30 µM (inactive) in [13]; 80 µM (inactive) in [14]; > 100 µM (inactive) in [15]; > 100 µM (inactive) in [16]; > 100 µM (inactive) in [17]; > 100 µM (inactive) in [18]. The GI50 in test [19] was > 100 µM (inactive); in test [20], 49.5 µM (inactive).
